Results taken from ChEMBL document CHEMBL1150784, “Multicopy blaOXA-58 gene as a source of high-level resistance to carbapenems in Acinetobacter baumannii” (2007).
Converted amounts (≈) assume the structure as drawn.

Experiments:
[1] = molecular target: Beta-lactamase OXA-58 (Acinetobacter baumannii) (UniProt Q2TR58); experiment: Activity of OXA58 from Acinetobacter baumannii 193 isolate carrying two bla-OXA58 gene copy assessed as hydrolytic specific activity per mg of protein
Acinetobacter baumannii [2] = experiment: Antimicrobial activity against carbapenem-resistant Acinetobacter baumannii T193 isolate carrying two bla-OXA58 gene copies by agar dilution method; type: functional
Acinetobacter baumannii [3] = experiment: Antimicrobial activity against carbapenem-resistant Acinetobacter baumannii T186 isolate carrying three bla-OXA58 gene copies by agar dilution method; type: functional
[4] = molecular target: Beta-lactamase OXA-58 (Acinetobacter baumannii) (UniProt Q2TR58); experiment: Activity of Acinetobacter baumannii […] OXA58 assessed as hydrolytic specific activity per mg of protein
[5] = molecular target: Beta-lactamase OXA-58 (Acinetobacter baumannii) (UniProt Q2TR58); experiment: Activity of OXA58 from Acinetobacter baumannii 183 isolate carrying one bla-OXA58 gene copy assessed as hydrolytic specific activity per mg of protein
Acinetobacter baumannii [6] = experiment: Antimicrobial activity against carbapenem-resistant Acinetobacter baumannii T183 isolate carrying one bla-OXA58 gene copy by agar dilution method; type: functional
Acinetobacter baumannii [7] = experiment: Antimicrobial activity against carbapenem-resistant Acinetobacter baumannii BM4547 by agar dilution method; type: functional
[8] = molecular target: Beta-lactamase OXA-58 (Acinetobacter baumannii) (UniProt Q2TR58); experiment: Activity of OXA58 from Acinetobacter baumannii T186 isolate carrying three bla-OXA58 gene copy assessed as hydrolytic specific activity per mg of protein
Acinetobacter baumannii [9] = experiment: Antimicrobial activity against carbapenem-resistant Acinetobacter baumannii 193 isolate carrying two bla-OXA58 gene copies by agar dilution method; type: functional
[10] = molecular target: Beta-lactamase OXA-58 (Acinetobacter baumannii) (UniProt Q2TR58); experiment: Activity of OXA58 from Acinetobacter baumannii 186 isolate carrying three bla-OXA58 gene copy assessed as hydrolytic specific activity per mg of protein
Klebsiella pneumoniae = experiment: Antimicrobial activity against Klebsiella pneumoniae isolate expressing VIM1 gene; type: functional
[11] = molecular target: Beta-lactamase OXA-58 (Acinetobacter baumannii) (UniProt Q2TR58); experiment: Activity of OXA58 from Acinetobacter baumannii T183 isolate carrying one bla-OXA58 gene copy assessed as hydrolytic specific activity per mg of protein
[12] = molecular target: Beta-lactamase OXA-58 (Acinetobacter baumannii) (UniProt Q2TR58); experiment: Activity of OXA58 from Acinetobacter baumannii T193 isolate carrying two bla-OXA58 gene copy assessed as hydrolytic specific activity per mg of protein
Acinetobacter baumannii [13] = experiment: Antimicrobial activity against carbapenem-resistant Acinetobacter baumannii 183 isolate carrying one bla-OXA58 gene copy by agar dilution method; type: functional
Acinetobacter baumannii [14] = experiment: Antimicrobial activity against carbapenem-resistant Acinetobacter baumannii 186 isolate carrying three bla-OXA58 gene copies by agar dilution method; type: functional

Chain of Beta-lactamase OXA-58 (Acinetobacter baumannii) (Q2TR58 whole entry): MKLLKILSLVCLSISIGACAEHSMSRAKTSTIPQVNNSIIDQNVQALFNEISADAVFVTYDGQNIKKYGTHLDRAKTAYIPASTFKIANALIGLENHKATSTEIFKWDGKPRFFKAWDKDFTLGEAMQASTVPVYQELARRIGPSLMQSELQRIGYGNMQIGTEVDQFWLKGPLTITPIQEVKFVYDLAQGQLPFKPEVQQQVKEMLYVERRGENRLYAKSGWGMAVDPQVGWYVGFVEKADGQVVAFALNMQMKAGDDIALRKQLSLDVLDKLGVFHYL

`CC(C)(O/N=C(\C(=O)N[C@@H]1C(=O)N2C(C(=O)[O-])=C(C[n+]3ccccc3)CS[C@H]12)c1csc(N)n1)C(=O)O` [CEFTAZIDIME] showed an Activity [1] of 0.077 U/mg, an MIC (Acinetobacter baumannii [2]) of 8 µg/mL (≈ 14.6 µM) and an MIC (Acinetobacter baumannii [3]) of 8 µg/mL (≈ 14.6 µM). It also gave an Activity [4] of under 0.01 U/mg, an Activity [5] of 0.075 U/mg and an MIC (Acinetobacter baumannii [6]) of 8 µg/mL (≈ 14.6 µM). It also gave an MIC (Acinetobacter baumannii [7]) of 4 µg/mL (≈ 7.32 µM).
`C[C@@H](O)[C@H]1C(=O)N2C(C(=O)O)=C(SCCNC=N)C[C@H]12` [IMIPENEM ANHYDROUS] was tested, and the Activity [8] was 0.388 U/mg, the Activity [1] was 0.227 U/mg and the MIC (Acinetobacter baumannii [9]) was 32 µg/mL (≈ 107 µM). The Activity [10] was 0.27 U/mg, the MIC (Acinetobacter baumannii [2]) was 16 µg/mL (≈ 53.4 µM) and the MIC (Acinetobacter baumannii [3]) was 64 µg/mL (≈ 214 µM). It also gave an Activity [4] of under 0.01 U/mg, an MIC (Klebsiella pneumoniae) of 2 µg/mL (≈ 6.68 µM) and an Activity [5] of 0.165 U/mg. The Activity [11] was 0.303 U/mg, the MIC (Acinetobacter baumannii [6]) was 6 µg/mL (≈ 20 µM) and the Activity [12] was 0.365 U/mg. For the same compound, the MIC (Acinetobacter baumannii [13]) was 16 µg/mL (≈ 53.4 µM) and the MIC (Acinetobacter baumannii [7]) was 0.5 µg/mL (≈ 1.67 µM).
`C[C@@H](O)[C@H]1C(=O)N2C(C(=O)O)=C(S[C@@H]3CN[C@H](C(=O)N(C)C)C3)[C@H](C)[C@H]12` [MEROPENEM] showed an MIC (Acinetobacter baumannii [9]) of 8 µg/mL (≈ 20.9 µM), an MIC (Acinetobacter baumannii [2]) of 4 µg/mL (≈ 10.4 µM) and an MIC (Acinetobacter baumannii [3]) of 8 µg/mL (≈ 20.9 µM). It also gave an MIC (Acinetobacter baumannii [14]) of 12 µg/mL (≈ 31.3 µM), an MIC (Acinetobacter baumannii [6]) of 3 µg/mL (≈ 7.82 µM) and an MIC (Acinetobacter baumannii [13]) of 4 µg/mL (≈ 10.4 µM). It also gave an MIC (Acinetobacter baumannii [7]) of 0.5 µg/mL (≈ 1.3 µM).
